Results published in article PMC11108815 (Heliyon, 2024).
Marks after values point to notes of the source that are not given here.

What was measured:
[1] = Stability test of QC samples; type: physicochemical, rat
[2] = Pharmacokinetics in rat plasma; type: in vivo, Wistar rats; conditions: for AUC(0-inf): AUC0-∞; for CL/F: CLz/F; for MRT last: MRT0-t; for MRT inf: MRT0-∞
[3] = rats, oral, 12.5 to 50 mg kg^−1; cited from earlier work
[4] = Store at 4 °C for 24 h, high concentration QC sample in rat plasma
[5] = Store at 4 °C for 24 h, low concentration QC sample in rat plasma
[6] = Store at 4 °C for 24 h, medium concentration QC sample in rat plasma
[7] = Store at room temperature for 12 h, high concentration QC sample in rat plasma
[8] = Store at room temperature for 12 h, low concentration QC sample in rat plasma
[9] = Store at room temperature for 12 h, medium concentration QC sample in rat plasma
[10] = Store at −20 °C for 20 days, high concentration QC sample in rat plasma
[11] = Store at −20 °C for 20 days, low concentration QC sample in rat plasma
[12] = Store at −20 °C for 20 days, medium concentration QC sample in rat plasma
[13] = Three freeze-thaw cycles, high concentration QC sample in rat plasma
[14] = Three freeze-thaw cycles, low concentration QC sample in rat plasma
[15] = Three freeze-thaw cycles, medium concentration QC sample in rat plasma
[16] = Wistar, rat, plasma, po, 100 mg/kg, FS-C: normal (blank) rats, oral FS 100 mg kg^−1, n = 6
[17] = Wistar, rat, plasma, po, 100 mg/kg, FT-C: normal (blank) rats, oral FT 100 mg kg^−1, n = 6
[18] = FS-C: normal (blank) rats, oral FS 100 mg kg^−1, n = 6
[19] = FS-M: microcirculation dysfunction model rats, oral FS 100 mg kg^−1, n = 6
[20] = FT-C: normal (blank) rats, oral FT 100 mg kg^−1, n = 6
[21] = FT-M: microcirculation dysfunction model rats, oral FT 100 mg kg^−1, n = 6

O=C(/C=C/c1ccc(O)c(O)c1)O[C@H](Cc1ccc(O)c(O)c1)C(=O)O [Rosmarinic acid]
Stability, Accuracy (RE, %) [1, 4]: 5.57% | Stability, Accuracy (RE, %) [1, 5]: −6.18% | Stability, Accuracy (RE, %) [1, 6]: 0.63% | Stability, Accuracy (RE, %) [1, 7]: −10.92% | Stability, Accuracy (RE, %) [1, 8]: −3.95% | Stability, Accuracy (RE, %) [1, 9]: −0.80% | Stability, Accuracy (RE, %) [1, 10]: 0.99% | Stability, Accuracy (RE, %) [1, 11]: 1.19% | Stability, Accuracy (RE, %) [1, 12]: 6.02% | Stability, Accuracy (RE, %) [1, 13]: −4.84% | Stability, Accuracy (RE, %) [1, 14]: 1.82% | Stability, Accuracy (RE, %) [1, 15]: −0.56% | AUC(0-t) ([2]; Wistar, rat, plasma, po, 100 mg/kg, AUC0-t, FS-C: normal (blank) rats, oral FS 100 mg kg^−1, n = 6): 218 ± 14.9 ng·h/mL | AUC(0-t) ([2]; Wistar, rat, plasma, po, 100 mg/kg, AUC0-t, FT-C: normal (blank) rats, oral FT 100 mg kg^−1, n = 6): 104 ± 17.2 ng·h/mL | AUC(0-inf) [2, 16]: 222 ± 20.6 ng·h/mL | AUC(0-inf) [2, 17]: 109 ± 28.6 ng·h/mL | CL/F [2, 16]: 2060 mL/min/kg | CL/F [2, 17]: 3430 mL/min/kg | Cmax ([2]; Wistar, rat, plasma, po, 100 mg/kg, Cmax, FS-C: normal (blank) rats, oral FS 100 mg kg^−1, n = 6): 54.5 ± 5.34 ng/mL | Cmax ([2]; Wistar, rat, plasma, po, 100 mg/kg, Cmax, FT-C: normal (blank) rats, oral FT 100 mg kg^−1, n = 6): 16.4 ± 4.28 ng/mL | MRT last [2, 16]: 5.01 ± 0.38 h | MRT last [2, 17]: 7.95 ± 1.33 h | MRT inf [2, 16]: 5.48 ± 1.41 h | MRT inf [2, 17]: 8.82 ± 3.43 h | half-life ([2]; Wistar, rat, plasma, po, 100 mg/kg, T1/2, FS-C: normal (blank) rats, oral FS 100 mg kg^−1, n = 6): 2.42 ± 2.5 h | half-life ([2]; Wistar, rat, plasma, po, 100 mg/kg, T1/2, FT-C: normal (blank) rats, oral FT 100 mg kg^−1, n = 6): 2.91 ± 3.72 h | Tmax ([2]; Wistar, rat, plasma, po, 100 mg/kg, Tmax, FS-C: normal (blank) rats, oral FS 100 mg kg^−1, n = 6): 0.39 ± 0.09 h | Tmax ([2]; Wistar, rat, plasma, po, 100 mg/kg, Tmax, FT-C: normal (blank) rats, oral FT 100 mg kg^−1, n = 6): 0.22 ± 0.09 h | Tmax ([2]; Wistar, rat, plasma, po, 100 mg/kg, Tmax, control group, after oral administration of FS or FT): < 0.39 h | MRT0-t after oral FT compared with the FS group ([2]; both before and after modeling): increased | CLz/F in FT compared with FS ([2]; normal group, p < 0.01): higher | AUC0-t in FT compared with FS ([2]; normal group, p < 0.01, 0.05): significantly lower | AUC0-∞ in FT compared with FS ([2]; normal group, p < 0.01, 0.05): significantly lower | Cmax in FT compared with FS ([2]; normal group, p < 0.01, 0.05): significantly lower | Cmax after modeling compared with control group ([2]; oral administration of FS): increased | pharmacokinetic characteristics [3]: fast absorption, moderate elimination and low absolute bioavailability

O=C(/C=C/c1ccc(O)c2oc(-c3ccc(O)c(O)c3)cc12)O[C@H](Cc1ccc(O)c(O)c1)C(=O)O [Salvianolic acid C]
Stability, Accuracy (RE, %) [1, 4]: 7.30% | Stability, Accuracy (RE, %) [1, 5]: −9.02% | Stability, Accuracy (RE, %) [1, 6]: −3.01% | Stability, Accuracy (RE, %) [1, 7]: −13.32% | Stability, Accuracy (RE, %) [1, 8]: 4.15% | Stability, Accuracy (RE, %) [1, 9]: 1.94% | Stability, Accuracy (RE, %) [1, 10]: −1.60% | Stability, Accuracy (RE, %) [1, 11]: −1.94% | Stability, Accuracy (RE, %) [1, 12]: 4.74% | Stability, Accuracy (RE, %) [1, 13]: −3.54% | Stability, Accuracy (RE, %) [1, 14]: −5.18% | Stability, Accuracy (RE, %) [1, 15]: 7.92% | AUC0-∞ [2, 18]: 33.09 ± 32.59 ng·h/mL | AUC(0-t) [2, 18]: 30.14 ± 25.77 ng·h/mL | CLz/F [2, 18]: 1061 ± 557.5 mL/min/kg | Cmax [2, 18]: 11.01 ± 2.17 ng/mL | MRT0-t [2, 18]: 3.65 ± 4.31 h | MRT0-∞ [2, 18]: 4.61 ± 6.46 h | T1/2 [2, 18]: 7.30 ± 4.55 h | Tmax [2, 18]: 0.67 ± 0.26 h | AUC0-∞ [2, 19]: 55.32 ± 49.60 ng·h/mL | AUC(0-t) [2, 19]: 39.25 ± 24.96 ng·h/mL | CLz/F [2, 19]: 689.2 ± 416.2 mL/min/kg | Cmax [2, 19]: 11.09 ± 3.14 ng/mL | MRT0-t [2, 19]: 4.52 ± 4.05 h | MRT0-∞ [2, 19]: 10.25 ± 12.88 h | T1/2 [2, 19]: 8.45 ± 8.99 h | Tmax [2, 19]: 0.75 ± 0.27 h | AUC0-∞ [2, 20]: 30.07 ± 23.22 ng·h/mL | AUC(0-t) [2, 20]: 29.34 ± 21.99 ng·h/mL | CLz/F [2, 20]: 1134 ± 771.3 mL/min/kg | Cmax [2, 20]: 7.05 ± 1.64 ^b μg·L^−1 | MRT0-t [2, 20]: 4.27 ± 3.46 h | MRT0-∞ [2, 20]: 4.55 ± 3.95 h | T1/2 [2, 20]: 3.31 ± 1.82 h | Tmax [2, 20]: 0.28 ± 0.14 ^b h | AUC0-∞ [2, 21]: 40.99 ± 46.75 ng·h/mL | AUC(0-t) [2, 21]: 29.64 ± 22.98 ng·h/mL | CLz/F [2, 21]: 1061 ± 726.2 mL/min/kg | Cmax [2, 21]: 8.95 ± 6.01 ng/mL | MRT0-t [2, 21]: 3.90 ± 3.23 h | MRT0-∞ [2, 21]: 8.76 ± 14.72 h | T1/2 [2, 21]: 10.67 ± 9.80 h | Tmax [2, 21]: 1.22 ± 0.66 ^f h | Cmax in FT compared with FS ([2]; normal group, p < 0.01, 0.05): significantly lower
